Reference: patent US20200017496A1 (priority 2017, published 2020)

Key:
Experiment in all cases: MIC of compounds alone and combined with antibacterials, broth microdilution (CLSI)
Assay type in all cases: cell-based
[1] = system: Citrobacter koseri (CKR) isolates; settings: AF1 @ 4 μg/mL
In short: (§1)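 First, log-phase suspensions are brought to a final 5·10^5 CFU/mL in cation-adjusted Mueller-Hinton broth. Then plates with compound, antibacterial, or both incubate 16-20 h at 35° C under ambient air. Finally, visual inspection gives the lowest growth-preventing concentration for each agent.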

[2] = system: Providencia stuartii (PST) isolates; settings: AF1 @ 4 μg/mL
In short: as §1

[3] = system: Providencia rettgeri (PRE) isolates
In short: as §1

[4] = system: Morganella morganii (MMO) isolates; settings: AF1 @ 4 μg/mL
In short: as §1

[5] = system: Escherichia coli (ECO) isolates; settings: AF1 @ 4 μg/mL
In short: as §1

[6] = system: Serratia marcescens (SMA) isolates
In short: as §1

[7] = system: Enterobacter aerogenes (EAE) isolates; settings: AF1 @ 4 μg/mL
In short: as §1

`COCC1=C(C(=O)O)N2C(=O)[C@@H](NC(=O)/C(=N\OC)c3csc(N)n3)[C@H]2SC1` [POD, Cefpodoxime] was tested, and the “MIC ATB in combination” value ([1]; CKO ROU) was 2 µg/mL, the “MIC ATB in combination” value ([1]; CKO UFR149) was 8 µg/mL and the “MIC ATB in combination” value ([1]; CKO UFR150) was 8 µg/mL. The “MIC ATB in combination” value ([2]; PST UFR94) was 0.5 µg/mL, the “MIC ATB in combination” value ([2]; PST UFR95) was 2 µg/mL and the “MIC ATB in combination” value ([2]; PST UFR235) was 2 µg/mL. The “MIC ATB in combination” value ([3]; PRE UFR99, AF1 @ 4 μg/mL) was greater than 128 µg/mL, the “MIC ATB in combination” value ([3]; strain PRE UFR236, antibacterial combined with AF1 @ 4 μg/mL) was 1 µg/mL and the “MIC ATB in combination” value ([4]; MMO 200321) was 2 µg/mL. For the same compound, the “MIC ATB in combination” value ([4]; MMO UFR144) was 2 µg/mL, the “MIC ATB in combination” value ([4]; MMO UFR240) was “<=0.25 μg/mL” and the “MIC ATB in combination” value ([4]; MMO UFR241) was 2 µg/mL. The “MIC ATB in combination” value ([4]; MMO UFR242) was 4 µg/mL, the “MIC ATB in combination” value ([4]; MMO UFR243) was 4 µg/mL and the “MIC ATB in combination” value ([4]; MMO UFR244) was “<=0.25 μg/mL”. The “MIC ATB in combination” value ([4]; MMO UFR245) was 2 µg/mL, the “MIC ATB in combination” value ([4]; MMO UFR246) was 4 µg/mL and the “MIC ATB in combination” value ([4]; MMO UFR247) was 1 µg/mL. The “MIC ATB in combination” value ([5]; ECO 4133) was “<=0.25 μg/mL”, the “MIC ATB in combination” value ([5]; ECO 5302) was “<=0.25 μg/mL” and the “MIC ATB in combination” value ([5]; ECO 131119) was “<=0.25 μg/mL”. The “MIC ATB in combination” value ([5]; ECO 180070) was “<=0.25 μg/mL”, the “MIC ATB in combination” value ([5]; ECO 190314) was “<=0.25 μg/mL” and the “MIC ATB in combination” value ([5]; ECO 190317) was “<=0.25 μg/mL”. For the same compound, the “MIC ATB in combination” value ([5]; ECO 190457) was “<=0.25 μg/mL”, the “MIC ATB in combination” value ([5]; ECO 190549) was “<=0.25 μg/mL” and the “MIC ATB in combination” value ([5]; ECO 200159) was “<=0.25 μg/mL”. For the same compound, the “MIC ATB in combination” value ([5]; ECO 200259) was “<=0.25 μg/mL”, the “MIC ATB in combination” value ([5]; ECO 200344) was “<=0.25 μg/mL” and the “MIC ATB in combination” value ([5]; ECO 260096) was “<=0.25 μg/mL”. The “MIC ATB in combination” value ([5]; ECO 260304) was “<=0.25 μg/mL”, the “MIC ATB in combination” value ([5]; ECO 260508) was “<=0.25 μg/mL” and the “MIC ATB in combination” value ([5]; ECO RGN238) was “<=0.25 μg/mL”. The “MIC ATB in combination” value ([5]; ECO UFR15) was “<=0.25 μg/mL”, the “MIC ATB in combination” value ([5]; ECO UFR16) was 1 µg/mL and the “MIC ATB in combination” value ([5]; ECO UFR17) was greater than 128 µg/mL. For the same compound, the “MIC ATB in combination” value ([5]; ECO UFR18) was 8 µg/mL, the “MIC ATB in combination” value ([5]; ECO UFR19) was 4 µg/mL and the “MIC ATB in combination” value ([5]; ECO UFR20) was 4 µg/mL. For the same compound, the “MIC ATB in combination” value ([5]; ECO UFR61O) was 0.5 µg/mL, the “MIC ATB in combination” value ([5]; ECO UFR62) was 0.5 µg/mL and the “MIC ATB in combination” value ([5]; ECO UFR74) was 2 µg/mL. For the same compound, the “MIC ATB in combination” value ([5]; ECO UFR86) was 1 µg/mL, the “MIC ATB in combination” value ([5]; ECO UFR174) was “<=0.25 μg/mL” and the “MIC ATB in combination” value ([5]; ECO UFR175) was 1 µg/mL. For the same compound, the “MIC ATB in combination” value ([5]; ECO UFR176) was “<=0.25 μg/mL”, the “MIC ATB in combination” value ([5]; ECO UFR184) was 4 µg/mL and the “MIC ATB in combination” value ([5]; ECO UFR185) was 32 µg/mL. The “MIC ATB in combination” value ([5]; ECO UFR186) was 1 µg/mL, the “MIC ATB in combination” value ([5]; ECO UFR187) was 0.5 µg/mL and the “MIC ATB in combination” value ([5]; ECO UFR189) was “<=0.25 μg/mL”. The “MIC ATB in combination” value ([5]; ECO UFR190) was “<=0.25 μg/mL”, the “MIC ATB in combination” value ([5]; ECO UFR191) was “<=0.25 μg/mL” and the “MIC ATB in combination” value ([5]; ECO UFR207) was “<=0.25 μg/mL”. The “MIC ATB in combination” value ([5]; ECO UFR208) was 64 µg/mL, the “MIC ATB in combination” value ([5]; ECO UFR209) was “<=0.25 μg/mL” and the “MIC ATB in combination” value ([5]; ECO UFR210) was “<=0.25 μg/mL”. For the same compound, the “MIC ATB in combination” value ([5]; ECO UFR211) was “<=0.25 μg/mL”, the “MIC ATB in combination” value ([5]; ECO UFR212) was 32 µg/mL and the “MIC ATB in combination” value ([5]; ECO UFR218) was “<=0.25 μg/mL”. The “MIC ATB in combination” value ([6]; SMA UFR30, AF1 @ 4 μg/mL) was 0.5 µg/mL, the “MIC ATB in combination” value ([6]; SMA UFR134, AF1 @ 4 μg/mL) was 2 µg/mL and the “MIC ATB in combination” value ([6]; SMA UFR135, AF1 @ 4 μg/mL) was 4 µg/mL. The “MIC ATB in combination” value ([6]; SMA UFR136, AF1 @ 4 μg/mL) was 8 µg/mL, the “MIC ATB in combination” value ([6]; SMA UFR137, AF1 @ 4 μg/mL) was 0.5 µg/mL and the “MIC ATB in combination” value ([6]; SMA UFR138, AF1 @ 4 μg/mL) was 0.5 µg/mL. The “MIC ATB in combination” value ([6]; SMA UFR139, AF1 @ 4 μg/mL) was 2 µg/mL, the “MIC ATB in combination” value ([6]; SMA UFR141, AF1 @ 4 μg/mL) was 2 µg/mL and the “MIC ATB in combination” value ([6]; SMA UFR142, AF1 @ 4 μg/mL) was 1 µg/mL. The “MIC ATB in combination” value ([6]; SMA UFR143, AF1 @ 4 μg/mL) was 1 µg/mL, the “MIC ATB in combination” value ([6]; SMA UFR239, AF1 @ 4 μg/mL) was 2 µg/mL and the “MIC ATB in combination” value ([6]; strain SMA UFR238, antibacterial combined with AF1 @ 4 μg/mL) was 2 µg/mL. For the same compound, the “MIC ATB in combination” value ([7]; EAE 49469) was 8 µg/mL, the “MIC ATB in combination” value ([7]; EAE 200261) was 4 µg/mL and the “MIC ATB in combination” value ([7]; EAE UFR199) was 1 µg/mL. The “MIC ATB in combination” value ([7]; EAE UFR201) was “<=0.25 μg/mL”, the “MIC ATB in combination” value ([7]; EAE UFR202) was 2 µg/mL and the “MIC ATB in combination” value ([7]; EAE UFR213) was 1 µg/mL.
